Patent US20140234502A1, “Treatment of Produce” (Rohm and Haas Company, priority 2009, published 2014)

Legend:
Type in all cases: in vivo, pear
Conference Pears [1] = assay: Examination of Conference pears for scald; conditions: Example 9, CA 6 months, Italy
From the text: (§1) Pears (Conference, William's/Bartlett, or Packam's) were harvested at maturity for long storage. Number of fruits and replicates were selected according to the size of the chamber in which to apply 1-MCP and according to the statistical design. Airtight containers in the range of 1 cubic meter were used for the application of both 1-MCP and ethylene. 1-MCP was released from SmartFresh™ powder that contained 0.14% 1-MCP by weight (obtained from AgroFresh, Inc.). The amount of that SmartFresh™ powder was chosen to yield the target atmospheric concentration of 1-MCP in the chosen container. For example, the 1-MCP released from 1000 mg of that SmartFresh™ powder in 1 cubic meter yielded 1-MCP concentration in the atmosphere of 625 ppb.
(§2) The chosen amount of SmartFresh™ powder was dissolved in water into a tight flask and shaken until all the powder was dissolved. The flask was then put it into the airtight container and opened, to release the 1-MCP. At the same time of the opening of the 1-MCP flask, ethylene was injected with a syringe into the airtight container. Ethylene was taken from a compressed tank at known concentration: either taken directly or released into a flask. In the latter case the concentration was measured by gas-chromatograph to determine the quantity of volume to inject into the airtight container to get the target concentration.
(§3) The exposure to atmosphere containing either 1-MCP alone or 1-MCP and ethylene was done on cold pears (already cooled down to non-ambient storage temperature) within a maximum of 7 days from harvest and lasted 24 hours. At the end of the application, the airtight container was vented for 15 minutes and the fruits were put into RA or CA storage. RA storage was at temperature of −1° C. to 1° C. and at relative humidity of 80% to 98%. CA storage had the same temperature and humidity of RA storage, had oxygen level of 1% to 3%, by volume based on the volume of the atmosphere and had carbon dioxide level of 0.5% to 2%, by volume based on the volume of the atmosphere.
Pears from Italy (the same pears whose firmness is reported herein above in Example 5) were examined for scald after exposure to ambient conditions for the number of days shown below.

Packam's Pears = assay: Firmness of Packam's pears by penetrometer after treatment, non-ambient storage and shelf life; conditions: South Africa, ambient 5 days
From the text: as §1, §2, §3
In addition, samples of pears (from the same orchards from which pears treated with 1-MCP alone or 1-MCP and ethylene were harvested) were put into an airtight container for 24 hours at the temperature as the treated pears in order to reproduce the same environmental conditions. Then they were stored in the same rooms or in separated rooms in the same conditions of RA and CA as the treated pears. […]
(§4) Pears denoted with a single number (e.g., “300”) received 1-MCP treatment with that concentration, in ppb, of 1-MCP in the atmosphere (e.g., 300 ppb) and were not exposed to exogenous ethylene. […] Reported quantity is “firmness” (“F”), the penetrometer force in kgf. […]

Conference Pears [2] = assay: Color rating of Conference pears; conditions: ambient 5-8 days; for Italy color / SW France color: scale of 0 (green) to 5 (yellow)
From the text: as §1, §2, §3
Pears were tested for firmness, as described above, and were rated for color on a scale of 0 (green) to 5 (yellow).

Conference Pears [3] = assay: Inspection of Conference pears for rot, bruising and internal browning
From the text: as §1, §2, §3
After RA storage, pears were exposed to ambient for the number of days shown below and then inspected for rot, bruising, and internal browning (“I.B.”). Results shown are the percentage of pears having the disorder.
Pears from SW France were examined as in Example 7, and the percent disordered fruit was as follows: […]

Conference Pears [4] = assay: Firmness of Conference pears by penetrometer after treatment, non-ambient storage and shelf life; design: key to SW France F (firmness) / Italy F (firmness) / Average F (firmness): penetrometer force in kgf (8 mm probe); conditions: for ES A F (firmness): farm ES A; for ES B F (firmness): farm ES B; for IT F (firmness): farm IT; for firmness: Example 9, CA 6 months; for Italy F (firmness) / firmness: Italy; for Orchard #1 F (firmness) / Orchard #2 F (firmness) / Orchard #3 F (firmness): Example 11, Spain, RA 3 months
From the text: as §1, §2, §3
In addition, samples of pears (from the same orchards from which pears treated with 1-MCP alone or 1-MCP and ethylene were harvested) were put into an airtight container for 24 hours at the temperature as the treated pears in order to reproduce the same environmental conditions. Then they were stored in the same rooms or in separated rooms in the same conditions of RA and CA as the treated pears. These pears received no exposure to 1-MCP, exogenous ethylene, or any combination thereof, and they are labeled “control” below.
Length of non-ambient storage at present commercial temperature and storage regime was generally of 2-4 months in RA and 6 months in CA, unless otherwise specified, according to normal commercial practice.
All pears received the same progression of non-ambient storage followed by exposure to ambient conditions (“shelf life”).
Pears denoted with a single number (e.g., “300”) received 1-MCP treatment with that concentration, in ppb, of 1-MCP in the atmosphere (e.g., 300 ppb) and were not exposed to exogenous ethylene. Pears denoted with two numbers (e.g. “300+600”) were treated with both that concentration in ppb of 1-MCP and that concentration in ppb of ethylene (e.g., 300 ppb of 1-MCP and 600 ppb of ethylene). The firmness of pears was tested using commercial penetrometers with test probe of 8 mm diameter. Reported quantity is “firmness” (“F”), the penetrometer force in kgf.

William's Pears = assay: Firmness of William's pears by penetrometer after treatment, non-ambient storage and shelf life; conditions: South Africa, RA for 8 weeks, ambient for 5 days
From the text: as §1, §2
The exposure to atmosphere containing either 1-MCP alone or 1-MCP and ethylene was done on cold pears (already cooled down to non-ambient storage temperature) within a maximum of 7 days from harvest and lasted 24 hours. At the end of the application, the airtight container was vented for 15 minutes and the fruits were put into RA or CA storage. RA storage was at temperature of −1° C. to 1° C. and at relative humidity of 80% to 98%. […]
as §4

[5] = Example 7, RA 4 months, SW France, 13 ambient days
[6] = Example 8, CA 6 months, ambient 13 days, SW France
[7] = Example 3, RA 3 months, ambient 5 to 8 days
[8] = Example 4, CA 6 months, ambient 5 to 8 days
[9] = Example 5, RA 3 months, ambient 5-8 days
[10] = Example 6, CA 6 months, ambient 5-8 days

CC1=CC1 [300(C), 1-MCP]
percent with scald (Conference Pears [1]; 0 ambient days): 0%
percent with scald (Conference Pears [1]; 7 ambient days): 1%
8 weeks F (firmness) (Packam's Pears; RA for 8 weeks): 6.8 kgf
12 weeks F (firmness) (Packam's Pears; RA for 12 weeks): 5.8 kgf
Italy color (Conference Pears [2]; Example 5, RA 3 months): 1.9
SW France color (Conference Pears [2]; Example 5, RA 3 months): 2.95
Italy color (Conference Pears [2]; Example 6, CA 6 months): 2.4
SW France color (Conference Pears [2]; Example 6, CA 6 months): 2.7
Average color (Conference Pears [2]; Example 6, CA 6 months, average of SW France and Italy, scale 0 (green) to 5 (yellow)): 2.6
percentage of pears having internal browning (I.B.) (Conference Pears [3]; Example 7, RA 4 months, Loire, France, 11 ambient days): 0 percentage
percentage of pears having internal browning (I.B.) (Conference Pears [3]; Example 7, RA 4 months, Loire, France, 13 ambient days): 0 percentage
percentage of pears having internal browning (I.B.) (Conference Pears [3]; Example 7, RA 4 months, Loire, France, 15 ambient days): 0 percentage
percentage of pears having bruising (Conference Pears [3]; [5]): 0 percentage
percentage of pears having internal browning (I.B.) (Conference Pears [3]; [5]): 0 percentage
percentage of pears having rot (Conference Pears [3]; [5]): 0 percentage
percent disordered fruit: I.B. (Conference Pears [3]; [6]): 34%
percent disordered fruit: rot (Conference Pears [3]; [6]): 12%
AV F (firmness), average of the results from the seven farms (Conference Pears [4]; [7]): 4.6 kgf
ES A F (firmness) (Conference Pears [4]; [7]): 2.5 kgf
ES B F (firmness) (Conference Pears [4]; [7]): 3.4 kgf
FR A F (firmness) (Conference Pears [4]; Example 3, RA 3 months, ambient 5 to 8 days, farm FR A): 5.3 kgf
FR B F (firmness) (Conference Pears [4]; Example 3, RA 3 months, ambient 5 to 8 days, farm FR B): 5.1 kgf
IT F (firmness) (Conference Pears [4]; [7]): 4.8 kgf
NL A F (firmness) (Conference Pears [4]; Example 3, RA 3 months, ambient 5 to 8 days, farm NL A): 5.3 kgf
NL B F (firmness) (Conference Pears [4]; Example 3, RA 3 months, ambient 5 to 8 days, farm NL B): 5.6 kgf
Av F (firmness), average of the results from the six farms (Conference Pears [4]; [8]): 4.1 kgf
ES A F (firmness) (Conference Pears [4]; [8]): 4.2 kgf
ES B F (firmness) (Conference Pears [4]; [8]): 3.3 kgf
FR F (firmness) (Conference Pears [4]; Example 4, CA 6 months, ambient 5 to 8 days, farm FR): 4.7 kgf
IT F (firmness) (Conference Pears [4]; [8]): 4.7 kgf
NL A F (firmness) (Conference Pears [4]; Example 4, CA 6 months, ambient 5 to 8 days, farm NL A): 4.4 kgf
NL B F (firmness) (Conference Pears [4]; Example 4, CA 6 months, ambient 5 to 8 days, farm NL B): 3.4 kgf
Italy F (firmness) (Conference Pears [4]; [9]): 4.8
SW France F (firmness) (Conference Pears [4]; [9]): 5.1
Italy F (firmness) (Conference Pears [4]; [10]): 4.7
SW France F (firmness) (Conference Pears [4]; [10]): 4.7
Average F (firmness) (Conference Pears [4]; Example 6, CA 6 months, ambient 5-8 days, average of SW France and Italy): 4.7
firmness (Conference Pears [4]; 0 ambient days): 6.5 kgf
firmness (Conference Pears [4]; 7 ambient days): 4.7 kgf
Average F (firmness), average of the two orchards (Conference Pears [4]; Example 10, RA 3 months, ambient 5 days): 4.48 kgf
NL A F (firmness) (Conference Pears [4]; Example 10, RA 3 months, ambient 5 days, NL A): 5.59 kgf
NL B F (firmness) (Conference Pears [4]; Example 10, RA 3 months, ambient 5 days, NL B): 3.37 kgf
Orchard #1 F (firmness) (Conference Pears [4]; 0 days ambient): 5.72 kgf
Orchard #2 F (firmness) (Conference Pears [4]; 0 days ambient): 5.92 kgf
Orchard #3 F (firmness) (Conference Pears [4]; 0 days ambient): 5.97 kgf
Orchard #1 F (firmness) (Conference Pears [4]; 7 days ambient): 5.84 kgf
Orchard #2 F (firmness) (Conference Pears [4]; 7 days ambient): 5.53 kgf
Orchard #3 F (firmness) (Conference Pears [4]; 7 days ambient): 5.44 kgf
Orchard #1 F (firmness) (Conference Pears [4]; 12 days ambient): 5.55 kgf
Orchard #2 F (firmness) (Conference Pears [4]; 12 days ambient): 5.68 kgf
Orchard #3 F (firmness) (Conference Pears [4]; 12 days ambient): 5.62 kgf
farm 1 F (firmness) (William's Pears; farm 1): 6.7 kgf
farm 2 F (firmness) (William's Pears; farm 2): 5.6 kgf
farm 3 F (firmness) (William's Pears; farm 3): 7.2 kgf
